Experimental data taken from ChEMBL document CHEMBL1697692, “Developing structure-activity relationships for the prediction of hepatotoxicity” (Chem Res Toxicol, 2010).
Numbered stars: 1 amine (or outer) side, 2 acyl side, 3 side chain; on linkers, the order of the positions; unused ones are H or OH. Bridge positions count the residues as written; N and C are the ends. Square brackets hold non-standard residues; d marks the D form. Peptide text beside a SMILES is read from it. I, II: the chains in the order shown. Actinocin(9to1) = Cc1c2oc3c(C)ccc(C(=O)[*:1])c3nc-2c(C(=O)[*:2])c(N)c1=O; NMeV = CN[C@H](C(=O)O)C(C)C; Sar = CNCC(=O)O

Test system: Hepatotoxicity
Test: Literature-mined public compounds from Greene et al multi-species hepatotoxicity modelling dataset

Molecule | Hepatotoxicity
COc1cccc2c1C(=O)c1c(O)c3c(c(O)c1C2=O)C[C@@](O)(C(=O)CO)C[C@@H]3O[C@H]1C[C@H](N)[C@H](O)[C@H](C)O1 [DOXORUBICIN] | NE: No evidence of hepatotoxicity in any species
c1ccc2c(c1)Nc1ccccc1S2 [PHENOTHIAZINE] | HH: Evidence of human hepatotoxicity
CN1C(=O)OC(C)(C)C1=O [TRIMETHADIONE] | HH: Evidence of human hepatotoxicity
C=C[C@H]1CN2CC[C@H]1C[C@H]2[C@H](O)c1ccnc2ccc(OC)cc12.C=C[C@H]1CN2CC[C@H]1C[C@H]2[C@H](O)c1ccnc2ccc(OC)cc12.O.O.O=S(=O)(O)O [QUININE SULFATE] | HH: Evidence of human hepatotoxicity
CC(C)OC(=O)C(C)(C)Oc1ccc(C(=O)c2ccc(Cl)cc2)cc1 [FENOFIBRATE] | HH: Evidence of human hepatotoxicity
Cn1c(=O)c2[nH]cnc2n(C)c1=O.O [THEOPHYLLINE] | NE: No evidence of hepatotoxicity in any species
AUROTHIOGLUCOSE | HH: Evidence of human hepatotoxicity
Nc1c2c(nc3ccccc13)CCCC2 [TACRINE] | AH: Evidence for animal hepatotoxicity but not tested in humans
CCN(CC)Cc1cc(Nc2ccnc3cc(Cl)ccc23)ccc1O.Cl.Cl.Cl | HH: Evidence of human hepatotoxicity
CC(=O)OCC1=C(C(=O)[O-])N2C(=O)[C@@H](NC(=O)CSc3ccncc3)[C@H]2SC1.[Na+] [CEPHAPIRIN SODIUM] | NE: No evidence of hepatotoxicity in any species
O=C1CN(/N=C/c2ccc([N+](=O)[O-])o2)C(=O)N1 [NITROFURANTOIN] | HH: Evidence of human hepatotoxicity
O=C(O)c1cc(/N=N/c2ccc(S(=O)(=O)Nc3ccccn3)cc2)ccc1O [SULFASALAZINE] | HH: Evidence of human hepatotoxicity
NC(CO)(CO)CO [TROMETHAMINE] | NE: No evidence of hepatotoxicity in any species
CARBOPLATIN | HH: Evidence of human hepatotoxicity
CCCCC1=NC2(CCCC2)C(=O)N1Cc1ccc(-c2ccccc2-c2nnn[nH]2)cc1 [IRBESARTAN] | WE: Weak evidence (<10 case reports) of human hepatotoxicity
COc1cc(CNC(=O)CCCC/C=C/C(C)C)ccc1O [CAPSAICIN] | NE: No evidence of hepatotoxicity in any species
O=c1[nH]c(=O)n([C@@H]2O[C@H](CO)[C@@H](O)[C@@H]2F)cc1I [FIALURIDINE] | HH: Evidence of human hepatotoxicity
CCCNC(=O)NS(=O)(=O)c1ccc(Cl)cc1 [CHLORPROPAMIDE] | HH: Evidence of human hepatotoxicity
CCCCC(=O)N(Cc1ccc(-c2ccccc2-c2nnn[nH]2)cc1)[C@H](C(=O)O)C(C)C | WE: Weak evidence (<10 case reports) of human hepatotoxicity
C[N+](C)(C)CC(=O)O.[Cl-] [BETAINE HYDROCHLORIDE] | NE: No evidence of hepatotoxicity in any species
CCn1cc(C(=O)O)c(=O)c2ccc(C)nc21 [NALIDIXIC ACID] | HH: Evidence of human hepatotoxicity

Molecule | Hepatotoxicity
CNC(=O)Oc1ccc2c(c1)[C@]1(C)CCN(C)[C@@H]1N2C [PHYSOSTIGMINE] | NE: No evidence of hepatotoxicity in any species
CN1CCN(CCCN2c3ccccc3Sc3ccc(Cl)cc32)CC1.O=C(O)/C=C\C(=O)O.O=C(O)/C=C\C(=O)O [PROCHLORPERAZINE MALEATE] | HH: Evidence of human hepatotoxicity
CC1=C(CC(=O)O)c2cc(F)ccc2/C1=C\c1ccc([S+](C)[O-])cc1 (stereo not drawn) | HH: Evidence of human hepatotoxicity
Cc1c2oc3c(C)ccc(C(=O)N[C@@H]4C(=O)N[C@H](C(C)C)C(=O)N5CCC[C@H]5C(=O)N(C)CC(=O)N(C)[C@@H](C(C)C)C(=O)O[C@@H]4C)c3nc-2c(C(=O)N[C@@H]2C(=O)N[C@H](C(C)C)C(=O)N3CCC[C@H]3C(=O)N(C)CC(=O)N(C)[C@@H](C(C)C)C(=O)O[C@@H]2C)c(N)c1=O [DACTINOMYCIN] (I: T[dV]P[Sar][NMeV] / II: T[dV]P[Sar][NMeV]; ester I:1-I:C, II:1-II:C; linker I:N-II:N via Actinocin(9to1)) | HH: Evidence of human hepatotoxicity
NC1=NC(=O)C(c2ccccc2)O1 (stereo not drawn) [PEMOLINE] | HH: Evidence of human hepatotoxicity
CN(C)C(=O)Oc1ccc[n+](C)c1.[Br-] [PYRIDOSTIGMINE BROMIDE] | NE: No evidence of hepatotoxicity in any species
CNCC[C@@H](Oc1ccccc1C)c1ccccc1 [ATOMOXETINE] | HH: Evidence of human hepatotoxicity
COC(=O)Nc1nc2ccc(C(=O)c3ccccc3)cc2[nH]1 [MEBENDAZOLE] | HH: Evidence of human hepatotoxicity
C#C[C@]1(O)CC[C@H]2[C@@H]3CCC4=Cc5oncc5C[C@]4(C)[C@H]3CC[C@@]21C [DANAZOL] | HH: Evidence of human hepatotoxicity
COCc1c(C(C)C)nc(C(C)C)c(/C=C/[C@@H](O)C[C@@H](O)CC(=O)O)c1-c1ccc(F)cc1 [CERIVASTATIN] | HH: Evidence of human hepatotoxicity
Nc1ccc(C(=O)O)c(O)c1 [AMINOSALICYLIC ACID] | HH: Evidence of human hepatotoxicity
CCCc1nc2c(C)cc(-c3nc4ccccc4n3C)cc2n1Cc1ccc(-c2ccccc2C(=O)O)cc1 | WE: Weak evidence (<10 case reports) of human hepatotoxicity
CC(C)c1nc(CN(C)C(=O)N[C@H](C(=O)N[C@@H](Cc2ccccc2)C[C@H](O)[C@H](Cc2ccccc2)NC(=O)OCc2cncs2)C(C)C)cs1 [RITONAVIR] | HH: Evidence of human hepatotoxicity
C=C1c2cccc(O)c2C(=O)C2=C(O)[C@]3(O)C(=O)C(C(N)=O)=C(O)[C@@H](N(C)C)[C@@H]3[C@@H](O)[C@H]12.Cl [METHACYCLINE HYDROCHLORIDE] | HH: Evidence of human hepatotoxicity
C[C@@H]1C[C@H]2[C@@H]3CCC4=CC(=O)C=C[C@]4(C)[C@@]3(F)[C@@H](O)C[C@]2(C)[C@@]1(O)C(=O)CO [DEXAMETHASONE] | NE: No evidence of hepatotoxicity in any species
O=P1(NCCCl)OCCCN1CCCl (stereo not drawn) [IFOSFAMIDE] | HH: Evidence of human hepatotoxicity
CN[C@@H]1[C@H](O)[C@H](NC)[C@H]2O[C@@]3(O)C(=O)C[C@@H](C)O[C@H]3O[C@@H]2[C@H]1O.Cl | HH: Evidence of human hepatotoxicity
C#C[C@]1(O)CC[C@H]2[C@@H]3CCc4cc(O)ccc4[C@H]3CC[C@@]21C [ETHINYL ESTRADIOL] | HH: Evidence of human hepatotoxicity
CNCCCC12CCC(c3ccccc31)c1ccccc12 [MAPROTILINE] | WE: Weak evidence (<10 case reports) of human hepatotoxicity
C=C1CC[C@H](O)C/C1=C/C=C1\CCC[C@]2(C)[C@@H]([C@H](C)CCCC(C)(C)O)CC[C@@H]12.O [CALCIFEDIOL] | HH: Evidence of human hepatotoxicity
Cl.Nc1cc(Cl)cc(Cl)c1 | NE: No evidence of hepatotoxicity in any species

Molecule | Hepatotoxicity
CCCCNc1cc(C(=O)O)cc(S(N)(=O)=O)c1Oc1ccccc1 [BUMETANIDE] | HH: Evidence of human hepatotoxicity
Cc1nc2n(c(=O)c1CCN1CCC(c3noc4cc(F)ccc34)CC1)CCCC2 [RISPERIDONE] | HH: Evidence of human hepatotoxicity
O=C1CC[C@@]2(O)[C@H]3Cc4ccc(O)c5c4[C@@]2(CCN3CC2CC2)[C@H]1O5 [NALTREXONE] | HH: Evidence of human hepatotoxicity
CCSCC[C@H](N)C(=O)O (stereo in doubt; form 1) [ETHIONINE] | HH: Evidence of human hepatotoxicity
CC(C)(C)NCC(O)c1cc(O)cc(O)c1.O=S(=O)(O)O (stereo not drawn) | HH: Evidence of human hepatotoxicity
O=C(O)COc1ccc(C(=O)c2cccs2)c(Cl)c1Cl | HH: Evidence of human hepatotoxicity
POTASSIUM DICHROMATE | AH: Evidence for animal hepatotoxicity but not tested in humans
CN1CCC(=C2c3ccccc3CC(=O)c3sccc32)CC1 [KETOTIFEN] | NE: No evidence of hepatotoxicity in any species
CCC1=C(C)CN(C(=O)NCCc2ccc(S(=O)(=O)NC(=O)N[C@H]3CC[C@H](C)CC3)cc2)C1=O [GLIMEPIRIDE] | WE: Weak evidence (<10 case reports) of human hepatotoxicity
CC[N+](C)(C)c1cccc(O)c1.[Cl-] [EDROPHONIUM CHLORIDE] | NE: No evidence of hepatotoxicity in any species
N[C@H](C(=O)O)[C@@H]1CC(Cl)=NO1 [ACIVICIN] | NE: No evidence of hepatotoxicity in any species
COc1cc(NC(C)CCCN)c2ncccc2c1.O=P(O)(O)O.O=P(O)(O)O (stereo not drawn) [PRIMAQUINE PHOSPHATE] | WE: Weak evidence (<10 case reports) of human hepatotoxicity
O=c1[nH]cnc2c1ncn2[C@H]1CC[C@@H](CO)O1 [DIDANOSINE] | HH: Evidence of human hepatotoxicity
CO[C@H]1C[C@H](O[C@H]2[C@H](C)[C@@H](O[C@@H]3O[C@H](C)C[C@H](N(C)C)[C@H]3OC(C)=O)[C@@H](C)C[C@@]3(CO3)C(=O)[C@H](C)[C@@H](OC(C)=O)[C@@H](C)[C@@H](C)OC(=O)[C@@H]2C)O[C@@H](C)[C@@H]1OC(C)=O [TROLEANDOMYCIN] | HH: Evidence of human hepatotoxicity
C=C(C)[C@H]1CC=C(C)CC1 [D-LIMONENE] | AH: Evidence for animal hepatotoxicity but not tested in humans
Clc1ccc(CCC(Cn2ccnc2)Sc2c(Cl)cccc2Cl)cc1.O=[N+]([O-])O (stereo not drawn) [BUTOCONAZOLE NITRATE] | NE: No evidence of hepatotoxicity in any species
CC(C)c1cccc(C(C)C)c1O [PROPOFOL] | NE: No evidence of hepatotoxicity in any species
CCCN(CCC)C(=O)Cc1c(-c2ccc(Cl)cc2)nc2ccc(Cl)cn12 [ALPIDEM] | HH: Evidence of human hepatotoxicity
CCOC(=O)[C@H](CCc1ccccc1)N[C@@H](C)C(=O)N1Cc2ccccc2C[C@H]1C(=O)O | HH: Evidence of human hepatotoxicity
O=C1CCC(=O)N1c1cc(Cl)cc(Cl)c1 [DIMETHACHLON] | AH: Evidence for animal hepatotoxicity but not tested in humans
NS(=O)(=O)c1cc2c(cc1Cl)NCNS2(=O)=O [HYDROCHLOROTHIAZIDE] | HH: Evidence of human hepatotoxicity
